Test results published in paper PMC3841161, “De Novo Design and Synthesis of Ultra-Short Peptidomimetic Antibiotics Having Dual Antimicrobial and Anti-Inflammatory Activities” (PLoS ONE, 2013).
Residues, ends and D or L forms follow the SMILES beside them.

Experiments:
[1] = test system: E. coli [KCTC 1682]; assay type: cell-based, Escherichia coli; conditions: broth microdilution, 1% peptone, 18−20 h at 37°C, absorbance at 600 nm
Procedure: (§1) The antimicrobial activity of the peptides against two Gram-positive bacterial strains and two Gram-negative bacterial strains was examined using the broth microdilution method in sterile 96-well plates. Aliquots (100 µL) of a bacterial suspension at 2×10^6 colony-forming units (CFU)/mL in 1% peptone were added to 100 µL of the peptide solution (serial two-fold dilutions in 1% peptone). After incubation for 18−20 h at 37°C, bacterial growth inhibition was determined by measuring the absorbance at 600 nm with a Microplate Autoreader EL 800 (Bio-Tek Instruments, VT). The minimal inhibitory concentration (MIC) was defined as the minimum peptide concentration inhibited bacteria growth. Two types of Gram-positive bacteria (S. epidermidis [KCTC 1917] and S. aureus [KCTC 1621]) and two types of Gram-negative bacteria (E. coli [KCTC 1682] and P. aeruginosa [KCTC 1637]) were procured from the Korean Collection for Type Cultures (KCTC) at the Korea Research Institute of Bioscience and Biotechnology (KRIBB). MRSA samples (CCARM 3089, CCARM 3090, and CCARM 3095) were obtained from the Culture Collection of Antibiotic-Resistant Microbes (CCARM) at Seoul Women's University (Seoul, Korea).

[2] = test system: S. epidermidis [KCTC 1917]; assay type: cell-based, Staphylococcus epidermidis; conditions: broth microdilution, 1% peptone, 18−20 h at 37°C, absorbance at 600 nm
Procedure: as §1

[3] = test system: S. aureus [KCTC 1621]; assay type: cell-based, Staphylococcus aureus; conditions: broth microdilution, 1% peptone, 18−20 h at 37°C, absorbance at 600 nm
Procedure: as §1

[4] = test system: P. aeruginosa [KCTC 1637]; assay type: cell-based, Pseudomonas aeruginosa; conditions: broth microdilution, 1% peptone, 18−20 h at 37°C, absorbance at 600 nm
Procedure: as §1

[5] = test system: four bacterial strains (E. coli, P. aeruginosa, S. epidermidis, S. aureus); assay type: cell-based; conditions: four bacterial strains
Procedure: (§2) The prokaryotic selectivity of our designed HDAMPs is defined by the therapeutic index (TI) as a measure of the relative safety of the drug. It is a measure of a peptide's capability to differentiate any pathogen from a host cell. The TI value of each peptide was calculated as the ratio of the HC10 (the peptide concentration that produces 10% hemolysis toward hRBCs) to the geometric mean [GM; the geometric mean of the minimal inhibitory concentration (MIC) against four selected bacterial strains]. Larger values of TI correspond to greater prokaryotic selectivity.
as §1

[6] = test system: hRBCs versus four bacterial strains; experiment: Prokaryotic selectivity (therapeutic index, HC10/GM); conditions: ratio of HC10 to GM; 512 µg/mL used for HC10 >256 and 128 µg/mL for MIC >64
Procedure: as §2

[7] = test system: human red blood cells (hRBCs); experiment: Hemolytic activity; assay type: cell-based; conditions: 4% (v/v) hRBCs in PBS pH 7.4, 1 h at 37°C, absorbance at 405 nm; maximum concentration 256 µg/mL
Procedure: Hemolytic activity of peptides was tested against hRBCs. Fresh hRBCs were washed three times with phosphate-buffered saline (PBS; 35-mM phosphate buffer containing 150 mM of NaCl, pH 7.4) by centrifugation for 10 min at 1000×g and then re-suspended in PBS. The peptide solutions (serial two-fold dilutions in PBS) were then added to 100 µL of hRBCs in PBS to give a final volume of 200 µL and a final erythrocyte concentration of 4% (v/v). The resulting suspension was incubated with agitation for 1 h at 37°C. The samples were then centrifuged at 1000×g for 5 min, and hemoglobin release was monitored by measuring the absorbance of the supernatant at 405 nm. No hemolysis (blank) and 100% hemolysis controls consisted of hRBCs suspended in PBS and 0.1% Triton X-100, respectively. Percent hemolysis was calculated using the following equation: [drawing 1]

N=C(N)NCCC[C@H](NC(=O)[C@H](Cc1c[nH]c2ccccc12)NC(=O)[C@H](CCCNC(=N)N)NC(=O)[C@@H](N)Cc1c[nH]c2ccccc12)C(N)=O [(WR)2-NH2, reference compound] (H-WRWR-NH2)
Minimal Inhibitory Concentration (MIC) E. coli [KCTC 1682] [1]: 32 (45.6) µg/mL
Minimal Inhibitory Concentration (MIC) S. epidermidis [KCTC 1917] [2]: 8 (11.4) µg/mL
Minimal Inhibitory Concentration (MIC) S. aureus [KCTC 1621] [3]: 32 (45.6) µg/mL
Minimal Inhibitory Concentration (MIC) P. aeruginosa [KCTC 1637] [4]: 32 (45.6) µg/mL
GM, geometric mean of the MIC values against four bacterial strains [5]: 26 (37) µg/mL
TI (HC10/GM), therapeutic index [6]: 19.7
% Hemolysis (HC10), peptide concentration that induces 10% hemolysis against human erythrocytes [7]: >256 (>364.5) µg/mL
